Results: US10537610B1, “Peptide for inhibition of cancer” (priority 2018, dated 2020)

Columns and labels:
JAM-A (CD321) = test: Flow cytometry of JAM-A (CD321) on the surface of HMEC-1 cells; format: cell-based, human; conditions: Tβ4 200 nM, TGF-β1 10 ng/ml or TNF-α 10 ng/mL, 24 hours
Source text: For the detection of JAM-A surface expression the cells were labeled with FITC anti-human CD321 (F11R) Mouse IgG1 Antibody (BioLegend, San Diego, Calif., USA) or with the FITC Mouse IgG1 Isotype Control Antibody (BioLegend) for the negative control. Labeled cells were washed to remove unbound antibodies, harvested with ice cold EDTA/PBS, fixed with BD CellFix (Becton Dickinson. Franklin Lakes, N.J., USA) and subsequently analyzed by FACS Canto II flow cytometer (Becton Dickinson). Upon excitation at 488 nm with an argon laser the emission of the fluorescence was recorded through selective band pass filter at 517 nm. Data were recorded with DIVA software, version 6.0 (Becton Dickinson) and subsequently analyzed using FCSalyzer software, version 0.9.14-alpha (https://sourceforge.net/projects/fcsalyzer/).

soluble JAM-A = test: ELISA of JAM-A antigen in plasma, murine 4T1 breast cancer model; format: in vivo, mouse; conditions: 4T1 tumor-bearing BALB/c mice and control littermates; Tβ4 15 μg/kg or TGF-β1 5 μg/kg i.p., 21 days
Method: All in vivo experiments were carried on female BALB/c mice aged 8 to 12 weeks purchased from Animal House of Institute of Biology, University of Bialystok (Bialystok, Poland). The mice were housed under standard conditions at the Animal House of the Medical University of Lodz (Lodz, Poland). All animal procedures and protocols were conducted in accordance with the Guide for the Care and Use of Laboratory Animals of the National Animal Care Committee and were approved by Local Ethical Committee for Animal Research in Lodz (license number 9/LB51/2017 from Jun. 2, 2017). All efforts were made to minimize animal suffering.
Murine 4T1 cells were purchased from the American Type Culture Collection (ATCC, Manassas, Va., USA). The cells were maintained in RPMI-1640 (ATCC) with 10/o fetal bovine serum (FBS) and cultured in tissue culture flasks to 80% confluence. […]
The unbound biotinylated antibody was washed away and HRP-conjugated streptavidin was added to the wells. […] Regarding the both protocols, the enzyme-substrate (HRP-TMB) reaction was terminated by the addition of a sulfuric acid solution and the color change was measured spectrophotometrically at a wavelenght of 450 nm using the Wallac 1420 VICTOR2 Multilabel Counter (PerkinElmer). The concentration of target antigen in the samples was determined by comparing the optical density of the samples to the standard curve.

Q: For “Thymosin β4 (SDKPDMAEIEKFDKSKLKKTETQEKNPLPSKETIEQEKQAGES; not fully specified; Thymosin beta-4; UniProt P62328 2-44, looked up) [Tβ4]”, which “JAM-A (CD321) level on the cell surface” value (JAM-A (CD321)) is on record?
A: slightly decreased JAM-A level on the membrane of HMEC-1 cells

Q: And the “JAM-A level in plasma” value (soluble JAM-A)?
A: decrease JAM-A level in plasma
